“And” between values parts separate entries of the source, which are not always exact repeats. Identical values can stand only once. Like-named read-outs stand apart in the source and are kept apart here.
Legend:
Wild type P450cam [1] = molecular target: T1, Wild type P450cam (Pseudomonas putida, UniProt P00183); experiment: Turnover rate measured as NADH consumption rate; type: biochemical, P. putida; conditions: small alkanes; background about 0.07
Experimental: (§1) A buffered solution (50 mM Tris.HCI, pH 7.4), typically 3 ml in volume, containing 10 uM putidaredoxin, 2 uM putidaredoxin reductase, 1 uM cytochrome P-450cam mono-oxygenase (wild-type or mutant), 200 mM KCI, 50 ug/ml bovine liver catalase (Sigma), and 1 mM target organic compound such as cyclohexylbenzene (added as a 0.1 M stock in ethanol) was preincubated at 30° C. for 5 minutes. The enzymatic reaction was initiated by adding NADH to a total concentration of 2 mM. Further four aliquots of NADH (to increase the NADH concentration by 1 mM each time) were added in intervals of 10 minutes, and 30 minutes into the incubation one aliquot of substrate (to increase the concentration by 1 mM) was also added. The reaction was quenched after 60 minutes by adding 0.5 ml chloroform and vortexing the mixture. The phases were separated by centrifugation (4000 g) at 4° C. The chloroform layer was analyzed by gas chromatography.
(§2) The NADH concentration can be monitored at 340 nm and, in all cases, more substrates and NADH are added during the incubation.
(§3) Turnover rate measured as NADH consumption rate
(§4) (nmole NADH/nmole P450cam/s).

[2] = molecular target: T2, P450cam active site mutant Y96F (also C334A) (Pseudomonas putida, UniProt P00183, C335A/Y97F); type: biochemical, P. putida
T2 construct: reconstituted with putidaredoxin and putidaredoxin reductase
Experimental: as §1
(§5) For many substrate compounds such as cyclohexylbenzene for which not all the P-450cam-mediated oxidation products are commercially available, the chloroform extracts are evaporated to dryness under a stream of nitrogen. The residues were extracted with hexane and the oxidation products separated by high performance liquid chromatography, eluting with a hexane/isopropanol gradient. The purified products were then identified by mass spectroscopy and particularly nuclear magnetic resonance spectroscopy.
as §2

[3] = molecular target: T3, P450cam active site mutant Y96A (also C334A) (Pseudomonas putida, UniProt P00183, C335A/Y97A); type: biochemical, P. putida; conditions: for Products(%) Y96A: label = product
T3 construct: reconstituted with putidaredoxin and putidaredoxin reductase
Experimental: as §1, §5, §2

P450cam Mutant Y96A = P450cam Mutant Y96A (Pseudomonas putida, UniProt P00183, C335A/Y97A); type: binding, P. putida
[4] = molecular target: T4, P450cam Y96A (also contains the C334A mutation) (Pseudomonas putida, UniProt P00183, C335A/Y97A); type: biochemical, P. putida; conditions: small alkanes
T4 construct: reconstituted with putidaredoxin and putidaredoxin reductase
Experimental: as §1, §2, §3, §4

P450cam WT = molecular target: T5, P450cam WT (Pseudomonas putida, UniProt P00183); experiment: Product distribution following oxidation of substrates (GC); type: biochemical, P. putida; conditions: for Products (%) WT: label = product
T5 construct: reconstituted with putidaredoxin and putidaredoxin reductase
Experimental: as §1, §5, §2

[5] = molecular target: T6, P450cam active site mutant Y96V (also C334A) (Pseudomonas putida, UniProt P00183, C335A/Y97V); type: biochemical, P. putida; conditions: substrate cyclohexylbenzene
T6 construct: reconstituted with putidaredoxin and putidaredoxin reductase
Experimental: as §1, §5, §2

[6] = molecular target: T7, P450cam active site mutant Y96L (also C334A) (Pseudomonas putida, UniProt P00183, C335A/Y97L); type: biochemical, P. putida; conditions: substrate cyclohexylbenzene
T7 construct: reconstituted with putidaredoxin and putidaredoxin reductase
Experimental: as §1, §5, §2

Wild type P450cam [7] = molecular target: T1, Wild type P450cam; type: binding, P. putida
[8] = -- = no shift, nd = not determined

T2 sequence (P16640 whole entry): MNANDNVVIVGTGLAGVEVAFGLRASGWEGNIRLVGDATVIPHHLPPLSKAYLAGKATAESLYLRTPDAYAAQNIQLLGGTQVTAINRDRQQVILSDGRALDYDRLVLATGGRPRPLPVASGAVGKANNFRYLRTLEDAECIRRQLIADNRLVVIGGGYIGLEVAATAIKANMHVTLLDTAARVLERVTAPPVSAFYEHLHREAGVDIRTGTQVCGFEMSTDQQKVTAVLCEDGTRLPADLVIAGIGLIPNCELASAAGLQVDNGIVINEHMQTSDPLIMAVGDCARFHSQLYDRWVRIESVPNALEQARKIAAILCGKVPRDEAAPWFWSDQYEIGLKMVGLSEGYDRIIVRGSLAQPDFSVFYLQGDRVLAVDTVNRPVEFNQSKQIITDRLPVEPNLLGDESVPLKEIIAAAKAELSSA
T2 sequence (P00183 2-415 Y97F/C335A): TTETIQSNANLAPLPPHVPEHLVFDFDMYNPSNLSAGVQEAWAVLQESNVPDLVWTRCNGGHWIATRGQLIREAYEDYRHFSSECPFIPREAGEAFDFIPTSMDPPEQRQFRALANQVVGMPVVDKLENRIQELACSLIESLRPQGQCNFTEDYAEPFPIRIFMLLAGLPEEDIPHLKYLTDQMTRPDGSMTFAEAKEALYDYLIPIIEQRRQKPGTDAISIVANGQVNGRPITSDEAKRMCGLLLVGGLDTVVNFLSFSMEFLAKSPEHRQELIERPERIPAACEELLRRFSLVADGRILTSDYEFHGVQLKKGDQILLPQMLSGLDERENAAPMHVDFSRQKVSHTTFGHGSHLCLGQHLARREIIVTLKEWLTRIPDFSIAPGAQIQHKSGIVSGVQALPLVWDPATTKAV
T2 sequence (P00259 whole entry, further chain): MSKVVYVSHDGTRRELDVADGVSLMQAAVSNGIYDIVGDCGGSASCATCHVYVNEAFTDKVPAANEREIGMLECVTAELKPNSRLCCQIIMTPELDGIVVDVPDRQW
T5 sequence (P00259 whole entry): as the sequence (P00259 whole entry, further chain) above
T5 sequence (P16640 whole entry, further chain): as the sequence (P16640 whole entry) above
T5 sequence (P00183 whole entry): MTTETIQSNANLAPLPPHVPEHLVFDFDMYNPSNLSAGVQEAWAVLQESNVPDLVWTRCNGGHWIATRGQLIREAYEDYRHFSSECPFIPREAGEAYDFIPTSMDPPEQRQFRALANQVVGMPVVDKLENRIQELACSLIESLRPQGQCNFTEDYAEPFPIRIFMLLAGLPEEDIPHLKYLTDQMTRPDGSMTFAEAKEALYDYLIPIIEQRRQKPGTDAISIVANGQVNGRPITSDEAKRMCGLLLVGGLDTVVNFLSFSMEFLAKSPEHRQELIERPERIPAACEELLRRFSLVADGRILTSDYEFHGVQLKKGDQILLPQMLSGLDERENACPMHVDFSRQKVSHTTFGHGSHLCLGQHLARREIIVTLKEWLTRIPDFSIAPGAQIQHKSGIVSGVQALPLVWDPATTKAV
T1 sequence (P00183 whole entry): as above
T1 sequence (P00259 whole entry, further chain): as the sequence (P00259 whole entry, further chain) above
T1 sequence (P16640 whole entry, further chain): as the sequence (P16640 whole entry) above
Chain of P450cam Mutant Y96A (P00183 2-415 Y97A/C335A): as the sequence (P00183 2-415 Y97F/C335A) above, with F96A counted along it
Chain of P450cam Mutant Y96A (P16640 whole entry, further chain): as the sequence (P16640 whole entry) above
Chain of P450cam Mutant Y96A (P00259 whole entry, further chain): as the sequence (P00259 whole entry, further chain) above
T4 sequence (P00183 2-415 Y97A/C335A): as the sequence (P00183 2-415 Y97F/C335A) above, with F96A counted along it
T4 sequence (P16640 whole entry, further chain): as the sequence (P16640 whole entry) above
T4 sequence (P00259 whole entry, further chain): as the sequence (P00259 whole entry, further chain) above
T3 sequence (P00183 2-415 Y97A/C335A): as the sequence (P00183 2-415 Y97F/C335A) above, with F96A counted along it
T3 sequence (P00259 whole entry, further chain): as the sequence (P00259 whole entry, further chain) above
T3 sequence (P16640 whole entry, further chain): as the sequence (P16640 whole entry) above
T7 sequence (P00183 2-415 Y97L/C335A): as the sequence (P00183 2-415 Y97F/C335A) above, with F96L counted along it
T7 sequence (P16640 whole entry, further chain): as the sequence (P16640 whole entry) above
T7 sequence (P00259 whole entry, further chain): as the sequence (P00259 whole entry, further chain) above
T6 sequence (P00183 2-415 Y97V/C335A): as the sequence (P00183 2-415 Y97F/C335A) above, with F96V counted along it
T6 sequence (P00259 whole entry, further chain): as the sequence (P00259 whole entry, further chain) above
T6 sequence (P16640 whole entry, further chain): as the sequence (P16640 whole entry) above

Structure (SMILES): CCCCCC [Hexane]
- Turnover rate (NADH consumption rate) Wild type (Wild type P450cam [1]): background
- Relative activity (WT = 1) Y96F ([2]; substrate hexane): 18.2
- Relative activity (WT = 1) Y96A ([3]; substrate hexane): 25.5
- Mutant Y96A Vs DTT (P450cam Mutant Y96A): 60 and 40
- Mutant Y96A ΔSpin high/low (P450cam Mutant Y96A): 70 and 60
- Turnover rate (NADH consumption rate) Y96A [4]: 6.0 nmole NADH/nmole P450cam/s

Structure (SMILES): O[C@H]1CC[C@@H](c2ccccc2)CC1 [Cis-4-ol]
- Products (%) WT (P450cam WT; substrate cyclohexylbenzene): 12%
- Products (%) Y96V ([5]; label = product): 23%
- Products (%) Y96L ([6]; label = product): 16%
- Products(%) Y96F ([2]; substrate cyclohexylbenzene, label = product): 13%
- Products(%) Y96A ([3]; substrate cyclohexylbenzene): 45%

Structure (SMILES): c1ccc(C2CCCCC2)cc1 [Cyclohexylbenzene]
- Total products WT (P450cam WT; substrate cyclohexylbenzene): 0.8 area/10^5
- Total products Y96V [5]: 12.5 area/10^5
- Total products Y96L [6]: 10.4 area/10^5
- Total products Y96F ([2]; substrate cyclohexylbenzene): 1.1 area/10^5
- Total products Y96A ([3]; substrate cyclohexylbenzene): 7.4 area/10^5
- Mutant Y96A ΔSpin high/low (P450cam Mutant Y96A; [8]): 80
- Wild type Vs DTT (Wild type P450cam [7]): 20
- Wild type ΔSpin high/low (Wild type P450cam [7]; [8]): 20

Structure (SMILES): OC1C=C(c2ccccc2)CCC1 (stereo not shown) [3-ol (B)]
- Products (%) WT (P450cam WT; substrate phenylcyclohexene): 76%
- Products(%) Y96A ([3]; substrate phenylcyclohexene): 75%

Structure (SMILES): O=C1C=C(c2ccccc2)CCC1 [3-one (A)]
- Products (%) WT (P450cam WT; substrate phenylcyclohexene): 24%
- Products(%) Y96A ([3]; substrate phenylcyclohexene): 25%

Structure (SMILES): CCC(C)(C)C [2,2-dimethyl butane]
- Turnover rate (NADH consumption rate) Wild type (Wild type P450cam [1]): background
- Turnover rate (NADH consumption rate) Y96A [4]: 14.0 nmole NADH/nmole P450cam/s

Structure (SMILES): CCCCCC(C)C [2-methyl heptane]
- Turnover rate (NADH consumption rate) Wild type (Wild type P450cam [1]): background
- Turnover rate (NADH consumption rate) Y96A [4]: 2.1 nmole NADH/nmole P450cam/s

Structure (SMILES): CCC(C)CC [3-methyl pentane]
- Turnover rate (NADH consumption rate) Wild type (Wild type P450cam [1]): 1.3 nmole NADH/nmole P450cam/s
- Turnover rate (NADH consumption rate) Y96A [4]: 14.2 nmole NADH/nmole P450cam/s

Structure (SMILES): CCCCC(C)C [2-methyl hexane]
- Turnover rate (NADH consumption rate) Wild type (Wild type P450cam [1]): background
- Relative activity (WT = 1) Y96F ([2]; substrate 2-methyl hexane): 2.3
- Relative activity (WT = 1) Y96A ([3]; substrate 2-methyl hexane): 2.6
- Turnover rate (NADH consumption rate) Y96A [4]: 10.6 nmole NADH/nmole P450cam/s

Structure (SMILES): CCCCCCCC [n-Octane]
- Turnover rate (NADH consumption rate) Wild type (Wild type P450cam [1]): background
- Mutant Y96A Vs DTT (P450cam Mutant Y96A): 45
- Mutant Y96A ΔSpin high/low (P450cam Mutant Y96A; [8]): 80
- Wild type Vs DTT (Wild type P450cam [7]): 5
- Turnover rate (NADH consumption rate) Y96A [4]: 5.8 nmole NADH/nmole P450cam/s

Structure (SMILES): CCCCC [n-Pentane]
- Turnover rate (NADH consumption rate) Wild type (Wild type P450cam [1]): background
- Mutant Y96A Vs DTT (P450cam Mutant Y96A): 40
- Mutant Y96A ΔSpin high/low (P450cam Mutant Y96A; [8]): 55
- Wild type Vs DTT (Wild type P450cam [7]): 5
- Turnover rate (NADH consumption rate) Y96A [4]: 5.8 nmole NADH/nmole P450cam/s

— patent US6117661A, “Mutant mono-oxygenase cytochrome P450cam” (BG plc, priority 1995, dated 2000)
